Results published in US20090253622A1, “USE OF TLR3 AGONISTS FOR THE TREATMENT OF NEURODEGENERATIVE DISORDERS” (Nederlandse Organisatie voor toegepast - …, priority 2006, published 2009).

Legend:
[1] = tested on: TLR3; assay: TLR expression in cultured adult human astrocytes by real-time PCR; format: cell-based
Protocol: Adult human astrocytes from post-mortem subcortical white matter samples were isolated and cultured as previously described (Bsibsi et al., J Neuropath Exp Neurol 61:1013-1021 [2002]). As determined by specific staining for cellular markers for astrocytes (glial fibrillary acidic protein; GFAP) and microglia (CD68) astrocyte cultures were essentially homogeneous; as a rule all cells expressed GFAP and none of them expressed CD68. When indicated astrocytes were stimulated with 50 μg/mL poly I:C (Amersham Pharmacia Biotech, Piscataway, N.J.) or 200 ng/mL LPS (Sigma-Aldrich, Steinheim, Germany) to activate TLR3 and TLR4, respectively. These doses were selected on the basis of maximum effects in astrocytes. It should be noted that contaminants in the commercial LPS preparation could possibly lead to some level of TLR2 activation in addition to TLR4 by the LPS preparation used but not of TLR3. When stimulated with cytokines, astrocytes were supplied with TNF-α, IFN-γ, IL-1β (each at 500 U/mL), IL-4 (at 250 U/mL), IL-6 (at 200 U/mL), IL-12 (at 50 ng/mL), IL-10 (at 20 ng/mL) and TGF-β (at 12.5 ng/mL) (PeproTech, Rocky Hill, N.Y.). Control cDNA array profiling experiments included treatment with 50 μg/mL cycloheximide for 30 min prior to and during poly I:C treatment, or with 200 U/mL IFNβ (Avonex). Endothelial cells (UVEC) were isolated from umbillical cords and cultured on gelatin-coated dishes in M199 supplemented with 20 nM HEPES, 10% human serum, 10% heat-inactivated NBCS, 150 mg/mL ECGF, 5 U/mL heparin, 100 IU/mL penicillin and […] streptomycin. Total cellular RNA was isolated using RNA-Bee™ as previously described (Bsibsi et al., [2002] supra). Subsequently, RNA was reverse transcribed into cDNA and levels of TLR1-10 and β-actin as a reference were determined by quantitative real-time PCR. The following fluorogenic molecular beacons and primers (Biolegio, Nijmegen, The Netherlands) were used: The β-actin beacon contained 5′ fluorescein VIC, and the 3′ quencher Dabcyl. […] Data were analyzed using sequence detector version 1.7 software.

[2] = tested on: astrocytes from TLR3-deficient mice; assay: IL-6 release by astrocytes from TLR3-deficient mice (ELISA); format: cell-based; details: TLR3-deficient mouse astrocytes, 48 h
Protocol: (§1) Astrocytes were cultured in poly L-lysine coated 96 well-flat-bottom plates at 1×10^4 cells per well in 100 l DMEM/HAM-F10 medium containing 10% FCS and antibiotic supplements for 24 h to obtain post-confluent cultures. Recombinant human stathmin was next added to astrocytes, and parallel control stimuli were performed with either poly I:C, an established TLR3 agonist, or ultrapure lipopolysaccharides, established TLR4 agonists. After addition of these stimuli astrocytes were incubated for another 48 h. Astrocyte culture supernatants were subsequently collected and using a commercial ELISA kit levels of IL-6 were determined, as a marker for TLR-mediated activation of murine astrocytes.

[3] = tested on: TLR3; assay: CXCL8 release by cultured human astrocytes (ELISA); format: cell-based
Protocol: Cos-7 cells (25,000 cells per well in 96-well plates) were transfected for 5 h with 768 pools of cDNA derived from human brain tumours (5 pooled tumours including meningioma, oligodendroglioma, astrocytoma grades II and IV, and medulloblastoma; NCI CGAP Brn35; Invitrogen) using lipofectamine, after which cells were thoroughly washed. Transfection with green-fluorescent protein-encoding cDNA was used as an internal control for transfection efficiencies. After continued culture of the transfected cells for 48 h, 75 μL of each culture supernatant was harvested and added to cultured human astrocytes seeded at 1,000 cells per well in 75 μL. After 48 h of culture, supernatants were harvested and evaluated for CXCL8 release using ELISA. Stimulation of astrocytes with poly I:C served as positive controls for CXCL8 release in all cases, non-transfected Cos 7 culture supernatants as negative controls.
(§2) Purified recombinant stathmin was exposed to two different conditions that differentially affect the extent of helix formation within the protein chain. One part of the protein preparation was exposed to 5% trifluoroacetic acid (TFA) in water for 1 h at 37° C., strongly acidic conditions that tend to disrupt an alpha helix. In parallel, another part was exposed for 1 h at 37° C. to 5% of the helix-promoting solvent trifluoroethanol (TFE) in phosphate-buffered saline (PBS). After exposure to these different conditions, both protein samples were extensively dialysed for 48 h against several changes of PBS. Next, the samples were analyzed by […] circular dichroism spectroscopy that allows calculation of helical content on the basis of elipticity in the absorption of circularly polarized light. In both cases, another part of the dialyzed sample was tested in parallel for induction of TLR3-mediated release of CXCL8 (IL-8) in human astrocytes as described elsewhere in this application.

[4] = tested on: neurons in organotypic human brain slice cultures; assay: Neuronal survival in organotypic human brain slice cultures (calcein-AM / ethidium homodimer-1); format: cell-based; details: slices cultured 1 week; p<0.03
Protocol: Organotypic human brain slice cultures were set up and analyzed as previously described (Verwer et al., FASEB J. 16:54-60 [2002]). Briefly, tissue blocks were collected from different post-mortem cortical samples and 200-μm slices were produced. These slices were cultured for 1 week in Poly I:C- or LPS-conditioned astrocyte media that were obtained upon culturing astrocytes in the presence of either 50 μg/mL poly I:C or 200 ng/mL LPS. As a control untreated astrocyte-conditioned media from the same donor was used. All astrocyte-conditioned media were harvested after 48 h and stored at −20° C. Viability of neurons in the slice cultures was evaluated using calcein-AM and ethidium homodimer-1 (molecular Probes, Eugene, Oreg.). A Zeiss 410 Invert confocal laser scanning microscope was used to inspect the slices and quantify staining.

[5] = tested on: TLR3; assay: IL-6 release by astrocytes from wild-type mice (ELISA); format: cell-based; details: wild-type mouse astrocytes, 48 h
Protocol: as §1

[6] = tested on: experimental autoimmune encephalomyelitis; details: mice treated 5, 7 and 9 days after induction of the disease; cited from earlier work
[7] = tested on: human adult astrocytes; assay: cDNA array profiling of cytokine, chemokine and growth factor genes in human adult astrocytes; format: cell-based
Protocol: Adult human astrocytes from post-mortem subcortical white matter samples were isolated and cultured as previously described (Bsibsi et al., J Neuropath Exp Neurol 61:1013-1021 [2002]). […] When indicated astrocytes were stimulated with 50 μg/mL poly I:C (Amersham Pharmacia Biotech, Piscataway, N.J.) or 200 ng/mL LPS (Sigma-Aldrich, Steinheim, Germany) to activate TLR3 and TLR4, respectively. […] It should be noted that contaminants in the commercial LPS preparation could possibly lead to some level of TLR2 activation in addition to TLR4 by the LPS preparation used but not of TLR3. When stimulated with cytokines, astrocytes were supplied with TNF-α, IFN-γ, IL-1β (each at 500 U/mL), IL-4 (at 250 U/mL), IL-6 (at 200 U/mL), IL-12 (at 50 ng/mL), IL-10 (at 20 ng/mL) and TGF-β (at 12.5 ng/mL) (PeproTech, Rocky Hill, N.Y.). […] Endothelial cells (UVEC) were isolated from umbillical cords and cultured on gelatin-coated dishes in M199 supplemented with 20 nM HEPES, 10% human serum, 10% heat-inactivated NBCS, 150 mg/mL ECGF, 5 U/mL heparin, 100 IU/mL penicillin and […] streptomycin.
Analysis of the mRNA profile of astrocytes was performed by hybrid selection of ^32P-labeled cDNA on Clontech human cytokine/chemokine Atlas® arrays as previous described (Meeuwsen et al., Glia 43:243-253 [2003]). Hybridization signals for each of the 268 cytokine, chemokine and growth factor (receptor) genes were calculated as the mean of duplicate measurements, corrected for background intensity and quantified using software provided by the manufacturer. Relative expression was calculated by dividing these hybridization signals by the mean signal for all nine housekeeping reference genes on the corresponding array.
Gene profiling was performed using astrocytes from four different control donors.
Astrocytes were isolated from post mortem human brain tissue samples and cultured under conditions as described elsewhere in this application. One part of the culture was stimulated with 50 μg/ml stathmin, the second with 50 μg/ml poly I:C and a third was left untreated to served as a reference control. Following another 48 h RNA was isolated from each culture and ^32P-labeled cDNA was prepared by reverse transcription. Subsequent hybrid selection of these ^32P-labeled cDNA samples was performed on Clontech Atlas® arrays containing selective probes for 268 cytokines, chemokines and growth factors, and various receptors for these mediators. All hybridization signals were calculated as the mean of duplicate measurements, corrected for background intensity and quantified using software provided by the manufacturer. Relative signal strength was next calculated by dividing these averaged hybridization signals by the mean signal for all nine housekeeping reference genes that were also present on each array as a reference.

[8] = target: human Toll-like receptor 3 (human) (UniProt O15455); assay: cell-based or functional assay
[9] = Circular dichroism spectroscopy, helical content; format: physicochemical; details: pre-treated 1 h at 37° C., dialysed 48 h against PBS
Protocol: as §2, with “[…] […]” for “In parallel, another part was exposed for 1 h at 37° C. to 5% of the helix-promoting solvent trifluoroethanol (TFE) in phosphate-buffered saline (PBS). After exposure to these different conditions, both protein samples were extensively dialysed for 48 h against several changes of PBS.”

[10] = agonist-treated vs untreated astrocytes, 48 h

Molecule: TGF-β: anti-inflammatory cytokine, 12.5 ng/mL
- induction of TLR3 expression (in words) [1]: No induction of TLR3

Molecule: poly I:C
- IL-6 release [2]: fully abrogated
- release levels of CXCL8 ([3]; human adult astrocyte cultures): around 200 ng/mL
- survival of neurons [4]: promoted neuronal survival equally well
- IL-6 release [5]: marked IL-6 release
- disease development in EAE [6]: almost completely blocks subsequent disease development
- change in expression of genes encoding immune mediators and growth factors ([7]; 50 μg/ml, 48 h): comprehensive and marked change in expression
- Jag1, downregulation factor ([7]; 48 h): 1.96
- p40 subunit of IL-12 and IL-23, down-regulation factor ([7]; 48 h): ~2
- ERBB4 receptor protein-tyrosine kinase, ratio of expression [7, 10]: 0.43
- Smo, ratio of expression [7, 10]: 0.48
- VEGF receptor 2, ratio of expression [7, 10]: 0.22
- induction of chemokines CXCL8, CXCL2 and CCL3 ([7]; astrocytes): strongly induced
- induction of IL-9 ([7]; astrocytes, 48 h): 7.5 fold
- induction of IL-10 ([7]; astrocytes, 48 h): 2.3 fold
- induction of IL-11 ([7]; astrocytes, 48 h): 3.2 fold
- induction of TNF-α ([7]; astrocytes, 48 h): induced
- induction of tumour necrosis factor-stimulated gene 6 (TSG-6) ([7]; astrocytes, 48 h): over 10 fold
- induction of CCL4, CXCL6, CCL5, CXCL9 and CCL2 ([7]; astrocytes, to a lesser extent): leads to induction

Molecule: recombinant human stathmin (from UniProt P16949 1-149) (ligand)
- Pearson correlation coefficient (r) between gene expression profiles (268 genes) of human astrocytes stimulated with 50 µg/ml stathmin or 50 µg/ml poly I:C [8]: 0.951
- TLR3-mediated release of CXCL8 (IL-8) in human astrocytes: TFE-treated stathmin (37% alpha helix) against TFA-treated stathmin (12% alpha helix) [8]: 3 fold

Molecule: OO [H2O2]
- induction of TLR3 expression (in words) [1]: selective induction of TLR3

B1: IL-10: anti-inflammatory cytokine, 20 ng/mL (protein, UniProt P22301 19-178, looked up)
Interleukin-10: SPGQGTQSENSCTHFPGNLPNMLRDLRDAFSRVKTFFQMKDQLDNLLLKESLLEDFKGYLGCQALSEMIQFYLEEVMPQAENQDPDIKAHVNSLGENLKTLRLRLRRCHRFLPCENKSKAVEQVKNAFNKLQEKGIYKAMSEFDIFINYIEAYMTMKIRN
- induction of TLR3 expression (in words) [1]: No induction of TLR3

B2: TFA-treated sample: purified recombinant stathmin exposed to 5% TFA in water for 1 h at 37° C. and dialysed against PBS (protein, UniProt P16949 2-149, looked up)
Stathmin: ASSDIQVKELEKRASGQAFELILSPRSKESVPEFPLSPPKKKDLSLEEIQKKLEAAEERRKSHEAEVLKQLAEKREHEKEVLQKAIEENNNFSKMAEEKLTHKMEANKENREAQMAAKLERLREKDKHIEEVRKNKESKDPADETEAD
modifications: TFA-treated
notes: purified recombinant stathmin exposed to 5% TFA in water for 1 h at 37° C. and dialysed against PBS
- alpha helical content [9]: 12%

B3: TFE-treated sample: purified recombinant stathmin exposed to 5% TFE in PBS for 1 h at 37° C. and dialysed against PBS (protein, UniProt P16949 2-149, looked up)
Stathmin: ASSDIQVKELEKRASGQAFELILSPRSKESVPEFPLSPPKKKDLSLEEIQKKLEAAEERRKSHEAEVLKQLAEKREHEKEVLQKAIEENNNFSKMAEEKLTHKMEANKENREAQMAAKLERLREKDKHIEEVRKNKESKDPADETEAD
modifications: TFE-treated
notes: purified recombinant stathmin exposed to 5% TFE in PBS for 1 h at 37° C. and dialysed against PBS
- alpha helical content [9]: 37%
- activity in activating astrocytes (CXCL8/IL-8 release), TFE-treated relative to TFA-treated sample ([3]; on weight basis): about 3 fold
